# Laboratory results as given in patent US20250051391A1, “PEPTIDE INHIBITORS AND METHODS FOR INHIBITING PROTEIN AGGREGATION IN NEURONS AND NEURODEGENERATIVE DISEASES” (THE GOVERNING COUNCIL OF THE UNIVERSITY OF TORONTO, priority 2021, published 2025).
# Ends that are not written are not given here.
# What was measured:
# [1] = system: rat substantia nigra dopaminergic neurons; assay: AAV V1S/SV2 a-syn oligomer rat model; format: in vivo
# Procedure: Adult female Sprague-Dawley rats (250-280 g; Envigo) were pair-housed in cages with wood bedding and had access to food and water ad libitum. The animal colony was maintained in a regular 12-h light/dark cycle. All procedures were approved by the University Health Network Animal Care Committee in accordance with guidelines and regulations set by the Canadian Council on Animal Care.
# Animals were secured in a stereotactic frame under isoflurane/oxygen anaesthesia and ketoprofen (5 mg/kg) analgesia. The surgical site was shaved and sterilized with iodine/betadine prior to making a 2 cm incision along the midline. The scalp was exposed and a unilateral injection targeting the SN was performed at coordinates AP−5.2 mm, ML−2 mm and DV−7.4 mm with respect to the bregma as a point of reference. For each animal, a total volume of 2 μl of virus was injected at a rate of 0.5 μl/min using a microinjection pump and 10 μl Hamilton syringe with a 26-gauge needle. For A53T groups, 1 μl (low dose) or 1.34 μl (high dose) of AAV1/2-A53T a-syn (5.1×10^12 genomic particles/ml), 0.14 μl of AAV1/2-Pdpep1.3-GFP or scramble1.3-GFP (5.1×10^12 genomic particles/ml) and 0.86 μl or 0.52 μl of sterile PBS was injected; for EV groups, 1 μl (low dose) or 1.34 μl (high dose) of AAV1/2-EV (5.1×10^12 genomic particles/ml) replaced AAV1/2-A53T. For V1S+SV2 groups, 0.58 μl of AAV1/2-V1S (1.1×10^12 genomic particles/ml), 0.58 μl of AAV1/2-SV2 (1.1×10^12 genomic particles/ml), 0.14 μl of AAV1/2-Pdpep1.3-RFP or scramble1.3-RFP (5.1×10^12 genomic particles/ml) and 0.7 μl of sterile PBS was injected; for the YFP groups, 1.16 μl of AAV1/2-YFP (1.1×10^12 genomic particles/ml), 0.14 μl of AAV1/2-Pdpep1.3-RFP or scramble1.3-RFP (5.1×10^12 genomic particles/ml) and 0.7 μl of sterile PBS was injected. At the end of virus injection, the needle remained in place for 5 minutes before gradual removal.
# Animals were uthanized by transcardial perfusion with heparinised saline under isoflurane/oxygen anaesthesia. Brains were then removed and the ventral part, including the ventral striatum, was snap frozen in liquid dry ice-cooled isopentane. […]
# Immunofluorescence staining for a-syn, tyrosine hydroxylase and LAMP1 was performed by washing free-floating sections with PBS-T (0.2% Triton X-100) three times for 10 min each at room temperature. […] Sections were then mounted onto glass slides and allowed to dry and then fluorescence mounting medium (DAKO) was applied followed by cover slips.
# Confocal images of immunofluorescent staining were acquired with a Zeiss LSM880 confocal microscope equipped with 405, 488, 555, and 639 nm laser lines. All images were taken within the linear range at constant gain and pinhole settings at optimal resolution settings determined by the software. […]
# [2] = system: C. elegans PDE dopaminergic neurons; assay: C. elegans neurite length assay (A30P a-syn); format: in vivo; settings: A30P human a-syn; RFP-tagged peptide version based on the nematode sequence of CHMP2B
# Procedure: C. elegans strains were grown and maintained under standard conditions at 22-23° (4). BZ555 [dat-1p::gfp] was obtained from the C. elegans Genetics Center (CGC; University of Minnesota, St Paul, MN, USA), TWH1 ([dat-1p::a-syn(A30P), ges-1p::DsRed]; [dat-1p::gfp]) was obtained by crossing BZ555 with A30P a-syn transgenic animals (kindly provided by Dr. Takeshi Iwatsubo, University of Tokyo) (5).
# The peptide construct (pPD97.78_osm-6p_TagRFP_wpeptide) was obtained by subcloning the following fragments into NheI and SpeI sites of pPD97.78 (A. Fire): NheI-AgeI […] fragment (2.4 kb) obtained by PCR using primer set 5′-[…]-3′ (SEQ ID NO: 44) and 5′-[…]-3′ (SEQ ID NO: 45) and N2 genomic DNA as a template, AgeI-EcoRI TagRFP fragment obtained by PCR using primer set 5′-gttgaccggt[…]-3′ (SEQ ID NO: 46) and 5′-ggcagaattcga[…]-3′ (SEQ ID NO: 47), EcoRI-SmaI peptide ([…] (SEQ ID NO: 48)) fragment digested from CMV_[…]_worm, SmaI-SpeI unc-54 3′-UTR fragment digested from pPD95.75 (Fire vector). […]
# Each plasmid (40 ng/μl) was injected with a co-injection marker, sur-5p::mCherry into TWH1. The animals carrying the extrachromosomal arrays were transferred to new plates, and their progenies were analyzed at the adult stage under a widefield microscope (Zeiss AxioObserver). […]
# CHMP2B = target: T1, CHMP2B (Homo sapiens, UniProt Q9UQN3); assay: a-syn competition fluorescence polarization assay (FITC-Pdpep1.3 and CHMP2B); format: binding; settings: 50 nM FITC-Pdpep1.3, 1 μM CHMP2B, a-syn titrated
# T1 construct: against CHMP2B 1-199 truncation and CHMP2B full length; His tag (implied by Ni-NTA purification; pET-DEST42 vector); made in house; host or cells: E. coli Overexpress C41
# T1 sequence (Q9UQN3 whole entry, the tested form may be a part): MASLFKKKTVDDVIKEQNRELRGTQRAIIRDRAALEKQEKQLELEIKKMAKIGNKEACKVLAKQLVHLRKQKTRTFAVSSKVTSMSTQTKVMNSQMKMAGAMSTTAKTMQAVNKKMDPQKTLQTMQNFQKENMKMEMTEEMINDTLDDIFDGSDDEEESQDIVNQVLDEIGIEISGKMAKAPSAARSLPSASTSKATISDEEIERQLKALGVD
sequence,measurement,setting,value
DEEIERQLKALG [PDpep1.3],surviving dopaminergic neurons in the SN and terminals in the striatum (TH),[1]; 6 weeks post-injection,increase in surviving dopaminergic neurons
same,total a-syn positive area in the SN,[1]; 6 weeks post-injection,decrease
same,a-syn oligomer levels measured by YFP positive area in SN and striatum,"[1]; 6 weeks post-injection, vs Scramble1.3",significant reduction
same,YFP mean fluorescence intensity in SN cells positive for TH and RFP,"[1]; rats, V1S/SV2, 6 weeks post-injection, AAV-expressed RFP peptide",0.063±0.0167 RFU
same,neurite shortening of PDE dopaminergic neurons,[2],partially rescued
same,competition with a-syn for binding to CHMP2B,CHMP2B,competed for binding to CHMP2B
